Entries after “also recorded” stand apart in the source; their conditions may differ.
Experiments:
B6 wild type mice = assay: Murine serum cytokine/chemokine secretion after i.v. glycolipid, B6 WT mice; assay type: in vivo; details: i.v. 1 μg/mouse; for induction of serum cytokines/chemokines: sera 2 and 18 hr after injection
Method: (§1) All the glycolipids were dissolved in 100% DMSO at a concentration of 1-2 mg/ml. For in vivo experiments, all compounds were diluted to 10 μg/ml in saline just before injection of 100 μl diluted glycolipid or 100 μl 1% DMSO into mice. Pathogen-free C57BL/6 female mice aged 6-12 weeks were obtained from the National Laboratory Animal Center (Taipei, Taiwan). Jα18 knockout (KO) B6 mice were the gifts from Dr. Masaru Taniguchi (RIKEN Research Center for Allergy and Immunology, Yokohama, Japan). All the mice were maintained in pathogen free vivarium of Institute of Cellular and Organismic Biology, Academia Sinica (Taipei, Taiwan).
(§2) B6 WT or Jα18 KO mice were intravenously injected with vehicle or glycolipids at 0.1 or 1 μg/mouse. Serum was collected at 2 and 18 h after injection for measurement of cytokines/chemokines by Beadlyte® Mouse Cytokine kit (Millipore, N.Y.) and read by a Luminex® 200™ system (Luminex, Austin, Tex.).

Jα18 knockout mice [1] = assay: Murine serum cytokine/chemokine secretion after i.v. glycolipid, Jα18 knockout mice; assay type: in vivo; details: Jα18 KO mice, 1 μg/mouse
Method: as §1, §2

[2] = system: Jα18 KO mouse splenocytes; assay: FACS analyses of Jα18 KO mouse immune cells (splenocytes) after glycolipid stimulation; assay type: in vivo; details: Jα18 KO mice, 3 days after i.v. injection, 1 μg/mouse
Method: (§3) B6 WT or Jα18 KO mice treated with specific glycolipid (1 μg/mouse) or vehicle (1% DMSO in PBS) were sacrificed at 72 hr post-injection and their spleens were harvested. After pressing spleens through 70 um strainer and lysis of erythrocytes, the nucleated cells were resuspended in PBS buffer containing azide (0.05%) and stained with antibodies recognizing the indicated cell surface antigens for 30 min at 4° C. After washing, the splenocytes were subjected to FACS analysis. The antibodies against CD3, CD4, CD8β, CD11c, CD80, and CD86 were obtained from BD Bioscience-Pharmingen.

[3] = system: Human naïve Vα24+ iNKT cells; assay: Expansion of human iNKT cells; assay type: cell-based; details: DCs pulsed with glycolipid at 100 ng/ml, IL-2 culture
Method: Human naïve Vα24^+ iNKT cells were cultured with autologous immature CD14^+ DCs pulsed with the indicated glycolipid at 100 ng/ml or DMSO on day 2 for 18 h. On day 3, the suspension cells were transferred to a new dish, cultured in the presence of 50 U/ml IL-2 (R & D Systems), and replenished with fresh medium every 3 days. The percentage of Vα24^+/Vβ11^+ cells was determined by flow cytometry on day 9. The total cell number after expansion was calculated with the Guava ViaCount reagent (Millipore, USA) and detected by the Guava system with CytoSoft™ software containing the ViaCount module (Millipore, USA).
Vα24^+ iNKT cells and CD14^+ cells were isolated from peripheral blood cells as described previously.^19 Immature DCs were generated from the CD14^+ cells after 2-day incubation in the presence of 300 U/ml GM-CSF (R & D Systems) and 100 U/ml IL-4 (R& D Systems).

mCD1d dimer = target: T1, mCD1d dimer (Mus musculus, UniProt P11609); assay: Binding strength of the binary complex between mCD1d and glycolipid (L363 antibody ELISA); details: KD from Scatchard transformation (FIG. 10D)
T1 construct: Ig fusion (dimer); purchased BD Biosciences PharMingen
T1 sequence (P11609 19-305 limits assumed): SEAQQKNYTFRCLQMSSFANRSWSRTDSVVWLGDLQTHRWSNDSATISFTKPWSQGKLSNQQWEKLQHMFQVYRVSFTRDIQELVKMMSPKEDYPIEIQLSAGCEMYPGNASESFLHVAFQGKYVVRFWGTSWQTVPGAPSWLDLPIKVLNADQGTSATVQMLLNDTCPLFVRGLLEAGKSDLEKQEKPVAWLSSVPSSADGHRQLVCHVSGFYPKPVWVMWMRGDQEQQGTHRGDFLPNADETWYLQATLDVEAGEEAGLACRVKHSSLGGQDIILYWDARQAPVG
T1 sequence (P01887 21-119 partner): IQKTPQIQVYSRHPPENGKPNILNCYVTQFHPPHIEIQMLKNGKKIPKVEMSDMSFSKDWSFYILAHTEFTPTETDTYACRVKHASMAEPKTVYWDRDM
Method: Different concentrations of mCD1d^di-glycolipid complexes coated on the ELISA plate were incubated with the saturated amounts of L363 antibody (BioLegend) conjugated with biotin, followed by streptavidin-HRP detection and ELISA measurement. The KD between L363 antibody and the indicated mCD1d^di-glycolipid complex was calculated from the linear regression of the Scatchard transformation of the L363 antibody binding curve using GraphPad Prism software. […] Next, the KD of the binary complex was determined as follows. Different concentrations of glycolipids were incubated with fixed amounts of mCD1d dimer at 37° C. overnight, and then mCD1d^di-glycolipid complexes were coated on the 96 well ELISA plate at 4° C. overnight. After washing and blocking with BSA at room temperature (RT) for 1 hr, L363 antibody conjugated with biotin was added for 30 min at RT, followed by incubation with streptavidin-HRP for 30 min at RT and detection with an ELSIA reader. KD values of the binary complex were calculated from the linear regression of the Scatchard transformation of the L363 antibody binding curve.

mouse iNKT TCR = mouse iNKT TCR (Mus musculus, UniProt A0A0B4J1J9+P11609); assay: Binding avidity of mCD1d-loaded glycolipids to Vα14+ iNKT cells (ternary interaction); details: for Kd: mCD1d-glycolipid complex, DN3A4-1.2 murine iNKT hybridoma cells
Method: Briefly, murine CD1d:Ig dimer (BD Biosciences PharMingen, San Diego, Calif.) was loaded with glycolipids at a molar ratio of 1:10 or vehicle for overnight at 37° C. Murine 1.2 Vα14^+ iNKT cells were incubated with various doses of dimer-glycolipid complex in buffer containing azide (0.05%) for 30 min at 4° C. These cells were then stained with anti-mouse IgG1-PE mAb (A85-1) for another 30 min at 4° C., followed by washing, fixation with 4% paraformaldehyde (PFA), and the bound mCD1d dimer complexes were detected by flow cytometry. The binding curve and linear fit of the Scatchard transformation were plotted by Graphpad Prism software.

C1-pulsed splenocytes = assay: CD1d dimer staining of in vivo C1-pulsed splenocytes; assay type: binding; details: B6 WT splenocytes 3 days after C1 1 μg/mouse, CD3+/CD45R− gate
Method: FIGS. 11A-D show: CD1d dimer staining of in vivo C1-pulsed splenocytes. B6 WT splenocytes (n=3) were harvested 3 days after injection with C1 (1 μg/mouse) and stained with CD3, CD45R and the indicated dimer complex conjugated with RPE for 1 hr at 4 degrees Celsius. (11A) CD3+/CD45R− cells were gated to analyze the dimer staining. (11B) unloaded dimer was used as the control. (11C) mCD1d dimer loaded with 7DW8-5-Glc stained 17.1±0.8% of C1-pulsed splenocytes. (11D) mCD1d dimer loaded with 7DW8-5 stained 36.2±5.0% of C1-pulsed splenocytes.

B6 WT mice splenocytes = assay: FACS analyses of WT mouse immune cells (splenocytes) after glycolipid stimulation; assay type: in vivo; details: 1 μg/mouse, 72 hr post-injection
Method: as §3

human iNKT TCR = human iNKT TCR (Homo sapiens, UniProt A0A0B4J240+P15813); assay: Binding avidity of hCD1d-loaded glycolipids with Vα24+ iNKT cells (ternary interaction)
Method: Binding avidity of human CD1d-glycolipid complexes to Vα24^+ iNKT cells expanded by 7DW8-5 at 100 ng/ml was determined as described previously.^19
(§4) Vα24^+ iNKT cell lines expanded with 7DW8-5 or C1 were generated as follows. After irradiation with 2,000 rad, the immature DCs were cocultured with syngenic Vα24^+ iNKT cells in the presence of 7DW8-5 or C1 at 100 ng/ml for 1 day. The cells were expanded in the presence of 50 U/ml IL-2 for 10-14 days after lipid removal. The same procedures were repeated once for further stimulation and expansion of iNKT cells.

[4] = system: Murine DN3A4-1.2 Vα14+ iNKT hybridoma cells; assay: mCD1d vs. hCD1d swapping assay, murine iNKT cells; assay type: cell-based, mouse; details: presented by mCD1d (A20-CD1d) or hCD1d (HeLa-CD1d), 1, 0.1, 0.01 μg/ml
Method: (§5) Murine DN3A4-1.2 Vα14^+ iNKT hybridoma cells or C1-expanded Vα24^+ iNKT cells were pulsed with the indicated glycolipid antigen presented either by mCD1d (A20-CD1d cells) or hCD1d (HeLa-CD1d cells) at 1, 0.1, and 0.01 μg/ml. After 18 hr, the supernatants were harvested for the measurement of cytokine secretion(s). IL-2 released from Vα14^+ iNKT cells was determined by ELISA assay. IFN-γ, IL-4 and IL-2 secreted from Vα24^+ iNKT cells were detected using Beadlyte® Human Cytokine kit (Millipore, N.Y., USA) and Luminex® 200™ reading system.

[5] = system: C1-expanded Vα24+ iNKT cells; assay: mCD1d vs. hCD1d swapping assay, human iNKT cells; assay type: cell-based; details: presented by mCD1d (A20-CD1d) or hCD1d (HeLa-CD1d), 1, 0.1, 0.01 μg/ml
Method: as §4, §5

Jα18 knockout mice [6] = details: Jα18 KO mice; cited from earlier work
murine iNKT cell = details: as compared to αGalCer; cited from earlier work
human iNKT cell = details: as compared to αGalCer; cited from earlier work

mouse iNKT TCR, sequence (A0A0B4J1J9 entry or part of it, one chain of several): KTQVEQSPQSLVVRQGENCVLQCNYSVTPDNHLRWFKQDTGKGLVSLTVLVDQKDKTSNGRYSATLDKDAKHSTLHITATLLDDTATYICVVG
human iNKT TCR, sequence (A0A0B4J240 22-114): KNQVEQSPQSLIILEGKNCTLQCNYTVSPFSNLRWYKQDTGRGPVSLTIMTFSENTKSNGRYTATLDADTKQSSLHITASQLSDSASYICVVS
human iNKT TCR, sequence (A0A075B6N4 22-114, further chain): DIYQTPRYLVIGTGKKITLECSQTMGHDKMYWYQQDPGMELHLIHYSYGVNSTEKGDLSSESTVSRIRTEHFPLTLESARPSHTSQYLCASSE
human iNKT TCR, sequence (P61769 21-119, further chain): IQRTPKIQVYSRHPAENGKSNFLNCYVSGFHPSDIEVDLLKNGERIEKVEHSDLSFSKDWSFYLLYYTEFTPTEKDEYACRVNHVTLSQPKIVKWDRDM
human iNKT TCR, sequence (P15813 20-301): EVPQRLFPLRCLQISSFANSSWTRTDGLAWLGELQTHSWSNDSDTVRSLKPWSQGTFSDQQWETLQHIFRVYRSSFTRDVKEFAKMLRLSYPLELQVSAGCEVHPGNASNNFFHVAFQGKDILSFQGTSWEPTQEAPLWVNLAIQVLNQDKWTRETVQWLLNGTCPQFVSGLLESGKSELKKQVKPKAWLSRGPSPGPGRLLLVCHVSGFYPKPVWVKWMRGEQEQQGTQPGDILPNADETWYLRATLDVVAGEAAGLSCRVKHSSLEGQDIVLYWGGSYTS

For `CC[C@@H](O)[C@@H](O)[C@H](CO[C@H]1OC(CO)[C@@H](O)C(O)C1O)NC(=O)Cc1ccc(F)cc1` (stereo partly drawn) [Compound 7DW8-5-Glc], the “levels of KC, MCP-1, IP-10 and MIG chemokines” value (B6 wild type mice; sera 2 and 18 hr) was “relatively high levels”, the “levels of Th1 and Th2 cytokines” value (B6 wild type mice; sera 2 and 18 hr) was “very low levels” and the “secretion of chemokines including KC, MCP-1, IP-10 and MIG” value (Jα18 knockout mice [1]) was “triggered the secretion”. For the same compound, the induction of cytokines (Jα18 knockout mice [1]; sera 2 and 18 hr after injection) was “no induction of cytokines”, the “CD11chi monocyte-derived DCs expansion and activation” value [2] was “significantly expanded and activated” and the “total splenocytes, CD4+ T and CD8+ T cells” value [2] was “No significant differences”. The “expanding human iNKT cells in vitro (number of expanded iNKT cells on day 9)” value [3] was “significantly (p=0.0009) better than 7DW8-5”, the “binding avidity to mCD1d dimer relative to αGalCer” value (mCD1d dimer) was roughly 20 fold and the “binding avidity of the murine ternary complex versus C34-Glc” value (mouse iNKT TCR) was “comparable”. For the same compound, the “C1-pulsed splenocytes stained by mCD1d dimer loaded with glycolipid” value (C1-pulsed splenocytes) was 17.1±0.8%.
With `CCCCCCCCCCCCCC[C@@H](O)[C@@H](O)[C@H](CO[C@H]1O[C@H](CO)[C@@H](O)[C@H](O)[C@@H]1O)NC(=O)CCCCCCCCCCc1ccc(F)cc1` [Compound 7DW8-5-Man] the “induction of serum cytokines/chemokines” value (B6 wild type mice) was “failed to induce any cytokines/chemokines”, the “expansion of immune cells” value (B6 WT mice splenocytes) was “did not expand any types of immune cells” and the “staining of murine iNKT cells with CD1d-glycolipid dimer” value (mouse iNKT TCR) was “lack of staining”. For the same compound, the “staining of human iNKT cells with CD1d-glycolipid dimer” value (human iNKT TCR) was “lack of staining”, the “cytokine secretion from mouse iNKT cells” value [4] was “could not stimulate” and the “cytokine secretion from human iNKT cells” value [5] was “could not stimulate”.
In the case of `CCCCCCCCCCCCCCCCCCCCCCCCCC(=O)N[C@@H](CO[C@H]1O[C@H](CO)[C@H](O)[C@H](O)[C@H]1O)[C@H](O)[C@H](O)CCCCCCCCCCCCCC` [Compound C1, α-galactosylceramide, reference compound], the Kd (mouse iNKT TCR) is given as 1.24 ± 0.003 nM, the Kd (human iNKT TCR; hCD1d-glycolipid complex, human Vα24+/Vβ11+ iNKT cells) is given as 16.4 ± 4.2 nM and the “IFN-γ in the sera” value (Jα18 knockout mice [6]) is given as “not secreted”.
With `CCC(=O)N[C@@H](CO[C@H]1OC(CO)[C@@H](O)C(O)C1O)[C@H](O)[C@H](O)CC` (stereo partly drawn) [Compound C1-Glc] the “induction of serum cytokines/chemokines” value (B6 wild type mice) was “triggered both cytokines and chemokines; also recorded: better than 7DW8-5-Glc”, the “CD80+ DCs activated, as compared to 7DW8-5-Glc” value (B6 WT mice splenocytes) was roughly 3.5 fold and the “CD86+ DCs activated, as compared to 7DW8-5-Glc” value (B6 WT mice splenocytes) was roughly 3 fold. The “total splenocytes and DCs expanded, as compared to 7DW8-5-Glc” value (B6 WT mice splenocytes) was roughly 1.3 fold, the Kd (mouse iNKT TCR) was 5.14 ± 0.11 nM and the “murine iNKT cell proliferation” value (murine iNKT cell) was “less stimulatory”. The “human iNKT cell proliferation” value (human iNKT cell) was “more potent”.
With `CC[C@@H](O)[C@@H](O)[C@H](CO[C@H]1OC(CO)[C@@H](O)C(O)C1O)NC(=O)Cc1ccc(Oc2ccc(F)cc2)cc1` (stereo partly drawn) [Compound C34-Glc] the “induction of serum cytokines/chemokines” value (B6 wild type mice) was “triggered both cytokines and chemokines; also recorded: better than 7DW8-5-Glc”, the “CD80+ DCs activated, as compared to 7DW8-5-Glc” value (B6 WT mice splenocytes) was roughly 2 fold and the “CD86+ DCs activated, as compared to 7DW8-5-Glc” value (B6 WT mice splenocytes) was roughly 2 fold. For the same compound, the Kd (mouse iNKT TCR) was 7.96 ± 1.27 nM.

Reference: patent US10918714B2, “Human iNKT cell activation using glycolipids with altered glycosyl groups” (Academia Sinica, priority 2013, dated 2021)
